Assay results: patent publication US20120258938A1, “Enzymatic Production or Chemical Synthesis and Uses for 5,7-Dienes and UVB Conversion Products Thereof” (priority 2008, published 2012)
Each block holds one compound with its values, some of them ahead of it.

Tests used:
[1] = test system: SKMEL-188 human melanoma cells; test: Proliferation (DNA synthesis) of SKMEL-188; format: cell-based; details: SKMEL-188, 72 h
Protocol: To measure DNA synthesis, keratinocytes, melanoma or prostate cancer cells were plated in 96-well plates. After overnight incubation tested compounds were added to the medium to achieve final concentrations 10^−7-10^−10 [M]. 100 μl of medium per well containing vitamin D3 compound was added to the cells. After 36 hours of incubation [3H]-thymidine (specific activity 88.0 Ci/mmol; Amersham Biosciences, Picataway, N.Y., USA) was added at 1 μCi/mL medium. After 12 hours, media were discarded, cells detached with trypsin and harvested on a glass fiber filter (Packard, Meriden, Calif., USA). 3H-radioactivity was measured with a beta counter (Direct Beta-Counter Matrix 9600; Packard).
HaCaT keratinocytes were an incubated for 48 h (FIG. 48A) or 72 h (FIG. 48B) in the presence of graded concentrations of 20(OH)D2 and/or 1,25(OH)2D3. […] Data are shown as mean±SD (n 3); *, p<0.05; **, p<0.01.

[2] = test system: CYP24; test: Real-time RT PCR CYP24 mRNA, normal epidermal keratinocytes; format: cell-based, human
Protocol: RNA was extracted as above. Reverse transcription was performed with Transcriptor First Strand cDNA Synthesis Kit (Roche, Nutley, N.J.). The primers (right: 5′-GCA GCT CGA CTG GAG TGA C-3′ (SEQ ID NO: 1) and left: 5′-CATCATGGCCATCAAAACAAT-3′(SEQ ID NO: 2)) and probe (cat. no. 04689135001) were designed with Universal Probe Library (Roche, Nutley, N.J.). Real-time PCR was performed using TaqMan PCR Master Mix at 50° C. for 2 min, 95° C. for 10 min and then 50 cycles (95° C. for 15 sec, 60° C. for 1 min). The data was collected on a Roche Light Cycler 480. The amounts of CYP24 were normalized using cyclophilin D as a housekeeping gene with comparative CT method.

[3] = test system: VDRE; test: Electrophoretic mobility shift assay for VDR activation (VDRE probe); format: cell-based, human; details: HaCaT nuclear extracts, 10 nM, 24 h
[4] = target: T1, CYP27A1 (Homo sapiens, UniProt Q02318); test: Metabolism by CYP27A1 (cyclodextrin or phospholipid vesicles)
T1 sequence (Q02318 34-531): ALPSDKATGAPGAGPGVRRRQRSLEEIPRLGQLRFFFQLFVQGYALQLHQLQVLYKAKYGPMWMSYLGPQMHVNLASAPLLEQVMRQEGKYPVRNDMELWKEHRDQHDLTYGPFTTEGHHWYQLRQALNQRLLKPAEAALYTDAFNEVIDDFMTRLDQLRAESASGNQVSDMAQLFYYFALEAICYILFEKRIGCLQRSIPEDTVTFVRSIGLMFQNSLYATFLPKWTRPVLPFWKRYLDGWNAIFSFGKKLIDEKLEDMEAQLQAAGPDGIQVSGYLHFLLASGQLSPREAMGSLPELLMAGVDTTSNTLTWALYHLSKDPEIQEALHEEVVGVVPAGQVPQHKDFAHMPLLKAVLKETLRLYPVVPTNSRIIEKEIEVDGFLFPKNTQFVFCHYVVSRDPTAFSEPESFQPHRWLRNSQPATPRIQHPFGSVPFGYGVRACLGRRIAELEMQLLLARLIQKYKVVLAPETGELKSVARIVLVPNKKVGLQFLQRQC
Protocol: To test enzymatic metabolism of 20S(OH)D3 and 20R(OH)D3, the substrates were incorporated into phospholipid vesicles with the ratio of substrate to phospholipid being 0.025 mol/mol phospholipid. Vesicles were incubated with 2 μM bovine CYP11A1 or 0.06 μM human CYP27B1 for up to 10 min. To test enzymatic metabolism of 20(OH)D3 in CYP24, the substrate was incorporated into phospholipids vesicles with 0.15-0.5 μM CYP24. To test enzymatic metabolism of 20(OH)D3 in CYP27A1, purified CYP27A1 was preincubated with the vesicles for 6 min at 37° C. Adrenodoxin was added last to initiate the reaction. For kinetic experiments, the incubations were typically 0.5 mL and were carried out over the initial linear period of the reaction (10 min for vitamin D3 and cholesterol and 30 min for 20(OH)D3).
Kinetic characterization of the metabolism of 20(OH)D3 by CYP27A1 was carried out with substrate dissolved in either cyclodextrin or phospholipid vesicle. Vitamin D3 and 20(OH)D3 were incubated with 0.4 μM CYP27A1 and 1 μM CYP27A1, respectively, for 10 and 30 min. The products were analyzed by reverse phase HPLC. The hyperbolic curves were fitted using the equation v/[E]=(kcat—[S])/(Km+[S]) where v is reaction velocity, [E] is the CYP27A1 concentration, and [S] the substrate concentration.

[5] = test system: NFκBI (IκBα); test: Western blot IκB-α in HaCaT and normal keratinocytes; format: cell-based, human; details: 100 nM, time dependant
Protocol: HaCaT keratinocytes were treated with 20,23-dihydroxycholecalciferol for indicated time: 0 h, 30 min, 1 h, 4 h, 16 h and 24 h, at the concentration of 10^−7 [M]. Cells were lysed and whole cell extract has been prepared. The equal amount of proteins calculates using Bradford method has been subjected to electrophoresis in SDS-PAGE 7-15% gel and transferred to a PVDF membrane (Millipore). The primary antibodies used were the rabbit polyclonal antibodies of anti+ IκB-α (Santa Cruz), 1:250 dilution, anti-p65 (Santa Cruz) 1:500 dilution and anti-β actin-peroxidase (Sigma) 1:1000 dilution. Secondary antibody used was anti rabbit-HRP (Santa Cruz) 1:7,000 dilution.

[6] = test system: U937 promonocytic leukemia cells; test: Monocytic differentiation (NBT), U937; format: cell-based, human; details: U937, 0.1 μM
Protocol: HL-60 human promyelocytic and U937 promonocytic leukemia cells were treated with the drugs at 0.1 μM or vehicle (negative control or 12-O-tetradecanoylphorbol-13-acetate (TPA) (positive control). Media were changed every 72 h and test substances added fresh every day. Differentiation toward monocytes-like morphology and NBT-reduction has been assessed after 5 and 7 days. Cells (2×106) were washed with PBS four times and resuspended in 200 μL of NBT solution (4 mg/mL) in water. After the addition of 200 ul of TPA solution (2 ug/ml) in PBS cells were incubated at 37° C. for 60 min in 24-well plates. Cell differentiation was assessed by intracellular blue formazan deposits. The NBT positive and negative cells were scored under light microscopy examination (40×) with a minimum of 200 cells scored.
For spectrophotometric analysis the cells were washed twice with buffer containing cold bovine serum albumin solution (17 mg/mL BSA, 137 mmol/L, NaCl, 5 mmol/L, KCl, 0.8 mmol/L, MgSO4, […], HEPES, pH7.4) to remove unreacted NBT, and the insoluble formazan deposits in the resulting pellet were solubilized in 1 mL of a mixture containing 90% DMSO, 0.1% SDS and 0.01 mmol/L NaOH by vigorous vortexing. The samples were centrifuged 5 min at 1500 g to remove the cellular debris, and then the absorbance of supernatants was measured at 715 nm. Data are expressed as change in A715/106 cells.

SMILES: C=C1/C(=C\C=C2/CCC[C@]3(C)[C@@H]([C@H](C)CCCC(C)(C)O)CC[C@@H]23)C[C@@H](O)C[C@@H]1O [1α,25-dihydroxycholecalciferol, (5Z,7E)-9,10-secocholesta-5,7,10(19)-triene-1α,3β,25-triol, reference compound]
proliferation [1]: Dose dependent inhibition of the proliferation

kcat ([4]; cyclodextrin): 0.013 ± 0.00033 s⁻¹
kcat ([4]; phospholipid vesicles): 0.0126 ± 0.001 s⁻¹
SMILES: C=C1CC[C@H](O)C/C1=C/C=C1\CCC[C@@]2(C)[C@H]1CC[C@@H]2[C@@](C)(O)CCCC(C)C [20(OH)D3, (5Z,7E)-9,10-secocholesta-5,7,10(19)-triene-3β,20-diol]
increase of CYP24 mRNA levels ([2]; 10 nM, 24 h): 1.3 fold
stimulation of CYP24 mRNA ([2]; 10^−6, 24 h): ~247 fold
binding of protein complexes to VDRE probe [3]: stimulated binding activity of protein complexes to VDRE probe

SMILES: C=C1CC[C@H](O)C/C1=C/C=C1\CCC[C@]2(C)[C@@H](C(C)(O)CC(O)CC(C)C)CC[C@@H]12 (stereo partly drawn) [20,23-dihydroxycholecalciferol, (5Z,7E)-9,10-secocholesta-5,7,10(19)-triene-3β,20,23-triol]
NFκBI (IκBα) protein levels [5]: induced an increase in NFκBI (IκBα) protein levels

SMILES: C=C1CC[C@H](O)C/C1=C/C=C1\CCC[C@]2(C)[C@@H](C(C)=O)CC[C@@H]12 [pD3, (5Z,7E)-3β-hydroxy-9,10-secopregna-5,7,10(19)-trien-20-one]
monocytic differentiation (NBT staining) [6]: induce monocytic differention
